Test results taken from ChEMBL document CHEMBL5726731, “Substituted benzenesulfonamides as sodium channel blockers” (2019).

Assay: (§1) Measurement of Sodium Ion Channel Blocking Effects: In order to measure the sodium ion channel blocking effect, an IonFlux16 Auto patch clamp system (Fluxion, Inc.) and a plate for exclusive use were used. The cells were distributed in an extracellular solution (4 mM KCl, 138 mM NaCl, 1 mM MgCl2, 1.8 mM CaCl2, 5.6 mM glucose, 10 mM HEPES, pH 7.45), and then dispensed in the specified region of the plate, and each of the prepared compound samples was diluted at various concentrations, and then dispensed in the specified region of the plate.
Assay type: cell-based

IC50 [nM]	SMILES
120	CNCCN(C)c1cc(C#N)ccc1Nc1cc(F)c(S(=O)(=O)Nc2cscn2)cc1Cl
360	CNC1CCN(c2cc(F)ccc2Nc2cc(F)c(S(=O)(=O)Nc3cc(C)on3)cc2Cl)C1 (configuration not stated)
103	C[C@@H]1CNCCN1c1cc(Cl)ccc1Nc1cc(F)c(S(=O)(=O)Nc2cscn2)cc1Cl
230	CNCCN(C)c1cc(C#N)ccc1Nc1cc(F)c(S(=O)(=O)Nc2ccc(F)cn2)cc1Cl
60	CNCCN(C)c1cc(C(F)(F)F)ccc1Nc1cc(F)c(S(=O)(=O)Nc2ncc(F)cn2)cc1Cl
396	CNC1CCN(c2cc(F)ccc2Nc2ccc(S(=O)(=O)Nc3cscn3)cc2)C1 (configuration not stated)
13	CNC1CCN(c2ccccc2Nc2ccc(S(=O)(=O)Nc3cscn3)cc2Cl)C1 (configuration not stated)
20	CNCCN(C)c1cc(F)ccc1Nc1cc(F)c(S(=O)(=O)Nc2nccs2)cc1Cl
40	CNCCN(C)c1ccccc1Nc1cc(F)c(S(=O)(=O)Nc2cscn2)cc1Cl
66	CN[C@@H]1CCCN(c2cc(F)ccc2Nc2cc(F)c(S(=O)(=O)Nc3cscn3)cc2Cl)C1
1500	C[C@H]1CN(c2cc(Cl)ccc2Nc2cc(F)c(S(=O)(=O)Nc3cscn3)cc2Cl)CCN1
110	CNCCN(C)c1cc(F)ccc1Nc1cc(F)c(S(=O)(=O)Nc2ccccn2)cc1Cl
30	CNCCN(C)c1cc(C(F)(F)F)ccc1Nc1cc(F)c(S(=O)(=O)Nc2cscn2)cc1Cl
110	CNC1CCN(c2cc(F)ccc2Nc2cc(F)c(S(=O)(=O)Nc3ncc(F)cn3)cc2Cl)C1 (configuration not stated)
28	CN1CCN(c2cc(OC(F)(F)F)ccc2Nc2cc(F)c(S(=O)(=O)Nc3cscn3)cc2Cl)CC1
26	CNC1CCN(c2cc(Cl)ccc2Nc2cc(F)c(S(=O)(=O)Nc3cscn3)cc2Cl)C1 (configuration not stated)
489	CNC1CCN(c2cc(C)ccc2Nc2cc(F)c(S(=O)(=O)Nc3cscn3)cc2Cl)C1 (configuration not stated)
> 1000	CN[C@@H]1CCCN(c2cc(OC)ccc2Nc2ccc(S(=O)(=O)Nc3cscn3)cc2Cl)C1
50	CNCCN(C)c1cc(F)ccc1Nc1cc(F)c(S(=O)(=O)Nc2ncc(C)s2)cc1Cl
50	CNCCN(C)c1cc(Cl)ccc1Nc1cc(F)c(S(=O)(=O)Nc2cscn2)cc1Cl
70	CNCCN(C)c1cc(C(F)(F)F)ccc1Nc1cc(F)c(S(=O)(=O)Nc2ccccn2)cc1Cl

IC50 [nM]	SMILES
> 1000	CN[C@@H]1CCN(c2cc(F)ccc2Nc2ccc(S(=O)(=O)Nc3cscn3)cc2)C1
86	CNC1CCN(c2c(F)cccc2Nc2cc(F)c(S(=O)(=O)Nc3cscn3)cc2Cl)C1 (configuration not stated)
51	CNC1CCN(c2ccccc2Nc2ccc(S(=O)(=O)Nc3cscn3)cc2)C1 (configuration not stated)
> 10000	CNC1CCN(c2cc(F)ccc2Nc2cc(F)c(S(=O)(=O)Nc3cncnc3)cc2Cl)C1 (configuration not stated)
49	CN[C@@H]1CCCN(c2cc(F)ccc2Nc2ccc(S(=O)(=O)Nc3cscn3)cc2Cl)C1
> 1000	CNC1CCN(c2cc(OC)ccc2Nc2ccc(S(=O)(=O)Nc3cscn3)c(F)c2)C1 (configuration not stated)
362	CN[C@@H]1CCN(c2cc(F)ccc2Nc2ccc(S(=O)(=O)Nc3cscn3)cc2Cl)C1
> 1000	O=S(=O)(Nc1cscn1)c1ccc(Nc2ccc(F)cc2N2CC[C@@H](F)C2)c(Cl)c1
> 1000	O=S(=O)(Nc1cscn1)c1ccc(Nc2ccc(F)cc2N2CC[C@@H](F)C2)cc1F
> 1000	CN[C@@H]1CCCN(c2cc(F)ccc2Nc2ccc(S(=O)(=O)Nc3cscn3)cc2)C1
> 1000	CN[C@@H]1CCCN(c2cc(OC)ccc2Nc2ccc(S(=O)(=O)Nc3cscn3)cc2)C1
> 1000	CNC1CCN(c2cc(Cl)cnc2Nc2cc(F)c(S(=O)(=O)Nc3cscn3)cc2Cl)C1 (configuration not stated)
375	CNC1CCN(c2c(F)cccc2Nc2ccc(S(=O)(=O)Nc3cscn3)cc2Cl)C1 (configuration not stated)
1090	CNCCN(C)c1cc(C#N)ccc1Nc1cc(F)c(S(=O)(=O)Nc2ncc(F)cn2)cc1Cl
435	COc1ccc(Nc2cc(F)c(S(=O)(=O)Nc3cscn3)cc2Cl)c(N2CC[C@H](N(C)C)C2)c1
28	CN[C@H]1CCN(c2cc(C(F)(F)F)ccc2Nc2ccc(S(=O)(=O)Nc3cscn3)cc2Cl)C1
9	CNCCN(C)c1cc(F)ccc1Nc1cc(F)c(S(=O)(=O)Nc2ncc(F)s2)cc1Cl
108	CNC1CCN(c2cc(OC(F)(F)F)ccc2Nc2ccc(S(=O)(=O)Nc3cscn3)c(F)c2)C1 (configuration not stated)
300	CNC1CCN(c2cc(F)ccc2Nc2cc(F)c(S(=O)(=O)Nc3cnccn3)cc2Cl)C1 (configuration not stated)
140	CNCCN(C)c1cc(OC)ccc1Nc1cc(F)c(S(=O)(=O)Nc2cscn2)cc1Cl
100	CNCCN(C)c1ccccc1Nc1cc(F)c(S(=O)(=O)Nc2ncc(F)cn2)cc1Cl

IC50 [nM]	SMILES
241	NC1CCN(c2cc(F)ccc2Nc2ccc(S(=O)(=O)Nc3cscn3)cc2Cl)C1 (configuration not stated)
12	CNC1CCN(c2cc(OC)ccc2Nc2cc(F)c(S(=O)(=O)Nc3cscn3)cc2Cl)C1 (configuration not stated)
200	CNCCN(C)c1cc(OC)ccc1Nc1cc(F)c(S(=O)(=O)Nc2ccc(F)cn2)cc1Cl
369	CNC1CCN(c2cc(OC(F)(F)F)ccc2Nc2c(F)cc(S(=O)(=O)Nc3cscn3)cc2F)C1 (configuration not stated)
278	CN(C)[C@@H]1CCN(c2cc(C(F)(F)F)ccc2Nc2cc(F)c(S(=O)(=O)Nc3cscn3)cc2Cl)C1
> 1000	CN1CCN(c2cc(F)ccc2Nc2ccc(S(=O)(=O)Nc3cscn3)cc2Cl)CC1
8	CNCCN(C)c1cc(F)ccc1Nc1cc(F)c(S(=O)(=O)Nc2ncc(Cl)s2)cc1Cl
44	CN[C@@H]1CCN(c2cc(F)ccc2Nc2cc(F)c(S(=O)(=O)Nc3cscn3)cc2Cl)C1
3670	CN(C)CCN(C)c1ccccc1Nc1cc(F)c(S(=O)(=O)Nc2ncc(Cl)s2)cc1Cl
27	CNCCN(C)c1ccccc1Nc1cc(F)c(S(=O)(=O)Nc2ncc(F)s2)cc1Cl
27	CNC1CCN(c2cc(C(F)(F)F)ccc2Nc2ccc(S(=O)(=O)Nc3cscn3)cc2Cl)C1 (configuration not stated)
240	CNCCN(C)c1cc(F)ccc1Nc1cc(F)c(S(=O)(=O)Nc2cc(C)[nH]n2)cc1Cl
241	CN[C@H]1CCN(c2cc(F)ccc2Nc2ccc(S(=O)(=O)Nc3cscn3)c(F)c2)C1
686	CNC1CCN(c2c(F)cccc2Nc2ccc(S(=O)(=O)Nc3cscn3)c(F)c2)C1 (configuration not stated)
240	CN(C)CCN(C)c1cc(F)ccc1Nc1cc(F)c(S(=O)(=O)Nc2nccs2)cc1Cl
100	CN(C)CCN(C)c1cc(F)ccc1Nc1cc(F)c(S(=O)(=O)Nc2cscn2)cc1Cl
100	CN(C)[C@@H]1CCN(c2cc(F)ccc2Nc2cc(F)c(S(=O)(=O)Nc3cscn3)cc2Cl)C1
360	CNCCN(C)c1cc(F)ccc1Nc1cc(F)c(S(=O)(=O)Nc2ncco2)cc1Cl
> 1000	O=S(=O)(Nc1cscn1)c1cc(F)c(Nc2ccc(F)cc2N2CC[C@@H](F)C2)c(F)c1
58	CNC1CCN(c2cc(C(F)(F)F)ccc2Nc2ccc(S(=O)(=O)Nc3cscn3)c(F)c2)C1 (configuration not stated)
53	CNC1CCN(c2ccccc2Nc2ccc(S(=O)(=O)Nc3cscn3)c(F)c2)C1 (configuration not stated)

Assay: as §1
Assay type: cell-based

IC50 [nM]	SMILES
> 10000	CNCCN(C)c1cc(C#N)ccc1Nc1cc(F)c(S(=O)(=O)Nc2cscn2)cc1Cl
> 10000	CNC1CCN(c2cc(F)ccc2Nc2cc(F)c(S(=O)(=O)Nc3cc(C)on3)cc2Cl)C1 (configuration not stated)
6720	C[C@@H]1CNCCN1c1cc(Cl)ccc1Nc1cc(F)c(S(=O)(=O)Nc2cscn2)cc1Cl
> 10000	CNCCN(C)c1cc(C#N)ccc1Nc1cc(F)c(S(=O)(=O)Nc2ccc(F)cn2)cc1Cl
> 10000	CNCCN(C)c1cc(C(F)(F)F)ccc1Nc1cc(F)c(S(=O)(=O)Nc2ncc(F)cn2)cc1Cl
> 10000	CNC1CCN(c2cc(F)ccc2Nc2ccc(S(=O)(=O)Nc3cscn3)cc2)C1 (configuration not stated)
> 10000	CNC1CCN(c2ccccc2Nc2ccc(S(=O)(=O)Nc3cscn3)cc2Cl)C1 (configuration not stated)
> 10000	CNCCN(C)c1cc(F)ccc1Nc1cc(F)c(S(=O)(=O)Nc2nccs2)cc1Cl
> 10000	CNCCN(C)c1ccccc1Nc1cc(F)c(S(=O)(=O)Nc2cscn2)cc1Cl
> 10000	CN[C@@H]1CCCN(c2cc(F)ccc2Nc2cc(F)c(S(=O)(=O)Nc3cscn3)cc2Cl)C1
> 10000	C[C@H]1CN(c2cc(Cl)ccc2Nc2cc(F)c(S(=O)(=O)Nc3cscn3)cc2Cl)CCN1
> 10000	CNCCN(C)c1cc(F)ccc1Nc1cc(F)c(S(=O)(=O)Nc2ccccn2)cc1Cl
8200	CNCCN(C)c1cc(C(F)(F)F)ccc1Nc1cc(F)c(S(=O)(=O)Nc2cscn2)cc1Cl
> 10000	CNC1CCN(c2cc(F)ccc2Nc2cc(F)c(S(=O)(=O)Nc3ncc(F)cn3)cc2Cl)C1 (configuration not stated)
> 10000	CN1CCN(c2cc(OC(F)(F)F)ccc2Nc2cc(F)c(S(=O)(=O)Nc3cscn3)cc2Cl)CC1
> 10000	CNC1CCN(c2cc(Cl)ccc2Nc2cc(F)c(S(=O)(=O)Nc3cscn3)cc2Cl)C1 (configuration not stated)
> 10000	CNC1CCN(c2c(F)cccc2Nc2cc(F)c(S(=O)(=O)Nc3cscn3)cc2Cl)C1 (configuration not stated)
> 10000	CNC1CCN(c2ccccc2Nc2ccc(S(=O)(=O)Nc3cscn3)cc2)C1 (configuration not stated)
> 10000	CNC1CCN(c2cc(F)ccc2Nc2cc(F)c(S(=O)(=O)Nc3cncnc3)cc2Cl)C1 (configuration not stated)
> 10000	CN[C@@H]1CCCN(c2cc(F)ccc2Nc2ccc(S(=O)(=O)Nc3cscn3)cc2Cl)C1
> 10000	CNCCN(C)c1cc(C#N)ccc1Nc1cc(F)c(S(=O)(=O)Nc2ncc(F)cn2)cc1Cl
1830	CNCCN(C)c1cc(F)ccc1Nc1cc(F)c(S(=O)(=O)Nc2ncc(F)s2)cc1Cl
> 10000	CNC1CCN(c2cc(F)ccc2Nc2cc(F)c(S(=O)(=O)Nc3cscn3)cc2Cl)C1 (configuration not stated)
> 10000	CNC1CCN(c2cc(F)ccc2Nc2cc(F)c(S(=O)(=O)Nc3cnccn3)cc2Cl)C1 (configuration not stated)
> 10000	CNCCN(C)c1ccccc1Nc1cc(F)c(S(=O)(=O)Nc2ncc(F)cn2)cc1Cl
> 10000	CNC1CCN(c2cc(OC)ccc2Nc2cc(F)c(S(=O)(=O)Nc3cscn3)cc2Cl)C1 (configuration not stated)
5540	CNCCN(C)c1cc(F)ccc1Nc1cc(F)c(S(=O)(=O)Nc2ncc(Cl)s2)cc1Cl
> 10000	CNC1CCN(c2cc(C(F)(F)F)ccc2Nc2ccc(S(=O)(=O)Nc3cscn3)c(F)c2)C1 (configuration not stated)
> 10000	CNC1CCN(c2ccccc2Nc2ccc(S(=O)(=O)Nc3cscn3)c(F)c2)C1 (configuration not stated)
